The test system of assay [1] is Brain microsomal fractions. Kind of assay: in vitro Anti-lipid peroxidation effect (TBAR production, Fe3+-ADP/NADPH). It is filed as biochemical, rat (SD strain, male). How it is done:
1. in vitro Anti-lipid peroxidation effect
Brain microsomal fractions were prepared from male rats of SD strain, and a portion (0.2 mg protein) was incubated at 37° C. for 15 minutes with a mixture of Fe^3+ (0.1 mM)--ADP (0.5 mM) in the presence or absence of the test compound, in final volume of 1 ml of 10 mM HEPES, 150 mM KCl, 0.2 mM NADPH, pH 7.4. After incubation, 1.5 ml of TCA-TBA-HCl reagent (16.7% trichloroacetic acid, 0.4% thiobarbituric acid, 0.278N hydrochloric acid) was added and the reaction mixture was heated in a boiling water for 15 minutes. After cooling in ice-bath, the reaction mixture was centrifuged, and the absorbance of the supernatant at 535 nm was measured. The amount of thiobarbituric acid reactive substance (TBAR) was obtained by calculation using an extinction coefficient of 1.56×10^5 […]. […] The results are shown in Table 1A for compounds of the formulas IA, IB, and IC, respectively. The compounds with highest inhibition rate have the greatest anti-lipid peroxidation effect.

Another assay deals with ventricular arrhythmia. Kind of assay: in vivo Ischemic heart/reperfusion test. To be noted: Rattus norvegicus, iv. How it is done: 4. in vivo Ischemic heart/reperfusion test
Experiment was carried out using rats anesthetized with pentobarbital under artificial respiration. After the forth rib was excised, heart was exposed by thoracotomy, and the thread was placed under the left coronary artery at it origin. Then, the heart was returned and a thread was passed in a tube. Compounds were applied through tail vein. After 10 minutes, the thread in the tube was pulled to occlude coronary artery. Five minutes after occlusion, the thread was loosened again for reperfusion. Then, ventricular arrhythmia was recorded on electrocardiogram (lead II), by sticking needle electrodes into a right fore-limb and a left hind-limb. Duration time of ventricular tachycardia and occurrence of ventricular fibrillation caused after reperfusion were compared between a group receiving the test compounds and a similarly treated vehicle group. If either of two parameters of the group that received the test compound became less than half of that of the group that received the vehicle, the test compound was estimated as "active".

Assay [2] concerns Mouse Cerebral Ischemia/Reperfusion. The experiment in a line: in vivo Behavior test (Mouse Cerebral Ischemia/Reperfusion Test). On the set-up: species or system mouse (ICR strain, male). The protocol: Bilateral common carotid arteries of both sides of ICR strain male mice (about 8 weeks old) were occluded for 5 minutes while lightly anesthetized, then blood was reperfuged. The test compounds were intraperitoneally administered 10 minutes before occlusion and within 3 hours after reperfusion. Since a day after reperfusion, behavior disorder was evaluated by spontaneous motor activity of exploratory behavior, traction test and passive avoidance test. That is, spontaneous motor activity was evaluated as follows. Motor activity was measured by tilting cage method for 30 minutes since immediately after a mouse was placed in a measurement cage. If the motor activity was at least more than (average of spontaneous motion of the group received solvent) +2×SD, the compound was evaluated as "active." In traction test, both fore limbs of the mouse were placed on the horizontally stretched wire. If the mouse put its hind limb within 2 seconds, the compound was estimated as "active.". In passive avoidance test, a step-through type apparatus was used, and as acquisition trial of blood reperfusion, electrical shock (about 0.5 mA, 3 seconds) was given to the mice as soon as the whole body of mice entered the black room and on the next day test trial was carried out. The mouse which stayed in a light room for at least 300 seconds was estimated as an active example. In all tests, the test compound which provided at least 50% of active animals was determined as "active." The results are shown in Table 5.

Assay [3] deals with pig right coronary artery. Kind of assay: in vitro Ca-antagonism (high K+ induced 45Ca-influx). To be noted: Sus scrofa, K+ 75 mM. The assay is classed as cell-based. How it is done:
2. in vitro Ca-antagonism
A strip of pig right coronary artery was depolarized with high K^+ (75 mM) for 30 minutes to induce voltage dependent ^45 Ca-influx. The extracellular ^45 Ca was chelated by adding EGTA and removed by washing, then the strip was lysed at 100° C. ^45 Ca in this lysate was measured as intracellular ^45 Ca by a scintillation counter. The concentration of the test compound was 10^-7, 10^-6, 10^-5 M, and applied until depolarization by K^+ was completed. Ratio of inhibition at various concentrations of the test compounds for increasing the intracellular ^45 Ca by K^+ was determined. The compound with high inhibition ratio has strong Ca-antagonism.

Assay [4] deals with KCN-induced respiratory arrest. Kind of assay: in vivo Anti-anoxia effect (KCN lethal dose). On the set-up: species or system mouse (ICR strain, male). To be noted: Mus musculus, po; * methansulfonate; KCN 3.0 mg/kg. How it is done:
7. in vivo Anti-anoxia effect
A group (5 mice) of ICR strain male mice (about 8-week-old) were used. One or two hours after the test compounds were orally administered, a lethal dose (3.0 mg/kg) of KCN was administered into tail vein. A period of time to respiratory arrest and a survival rate were measured. The test compound which provided at least 50% of active example was determined as "active".

A further assay deals with porcine coronary artery. The experiment in a line: in vitro Coronary vasodilation effect (PGF2α-contracted strip). It is filed as cell-based. The settings on record: Sus scrofa; 25% of papaverine-induced relaxation; read-out: Coronary Vasodilation (ED25 μM). The protocol:
3. in vitro Coronary vasodilation effect
The right portion of a porcine coronary artery was isolated, and cut into 3 mm wide strip which was suspended in a organ bath filled with 20 ml of Krebs--Henseleit solution (37° C.). During the experiment the bath solution was aerated with 95% O2 +5% Co2. The change in tension was measured using an isometric transducer. After load tension was stabilized, the preparation was contracted with PGF2α (10^-6 -[…]). After the contract level had stabilized the test compound was cumulatively applied from 10^-8 to 10^-5 M. Papaverine (10^-4 M) was used to obtain maximal relaxation at the end of the experiment. The result was expressed as the percentage of papverine-induced relaxation, and the concentration of the test compound which gave 25% relaxation of papaverine-induced relaxation was defined as ED25. The compound with low ED25 value has great coronary vasodilation effect.

Another assay has as its system cerebral blood flow. Kind of assay: Normal cerebral flow stream test. The assay is classed as in vivo. The settings on record: Rattus norvegicus, iv; urethane anesthetized; laser Doppler; read-out: active dose (increase in cerebral blood flow). How it is done: 6. Normal cerebral flow stream test
Experiment was carried out using rats anesthetized with urethane. After a cannulas for blood pressure monitoring and that for drug administration were inserted into femoral artery and vein, respectively. Temporal bone was cut away on a brain stereotaxis apparatus and a probe for measurement of cerebral blood flow was placed on dura mater. The cerebral blood flow was measured using a laser Dopplar blood flow meter. Firstly, a solvent of the test compound was administered intravenously and then three doses of the compound were administered in order of dose every fifteen-minute intervals. When an average of increase in cerebral blood flow due to the test compound minus 2×SE was larger than that of change in cerebral blood flow due to the solvent, the dose was estimated as "active". The compound (1B) was active in the dose of not less than 3 mg/kg i.v.

The mark [5] stands for this setting: read-out: Minimal Effective Dose (mg/kg, i.v.).
[6] abbreviates: ip, route cell empty (method: intraperitoneally).

Read-outs that look alike come from different tables or passages of the source.

As for `COc1cc(C(C)C)ccc(C2Sc3ccccc3N2CCN(C)C)c1=O` (centres unmarked) [Compound 11B, 2-(2'-oxo-3'-methoxy-5'-isopropyl-3',5',7'-cycloheptatrienyl)-3-[2-(N,N-dimethylamino)ethyl]benzothiazoline], the “Anti-Lipid Peroxidation (% inhibition) 10 μM” value in assay [1] was 89.3%. In addition, the minimal effective dose was below 5 mg/kg with ventricular arrhythmia (setting [5]) and 1 mg/kg in assay [2] (ip).

Regarding `CC(C)c1ccc(CN2CCN(C(c3ccc(F)cc3)c3ccc(F)cc3)CC2)c(=O)c(NCCN(C)C)c1` [Compound 1C, 7-[4-(4,4'-difluorobenzhydryl)piperazino-1-methyl]-2-(N-2-dimethylaminoethylamino)-4-isopropyl-2,4,6-cycloheptatrien-1-one], in assay [1], the “Anti-Lipid Peroxidation (% inhibition) 10 μM” value amounted to 59.4% and the “Anti-Lipid Peroxidation (% inhibition) 50 μM” value turned out to be 95.3%. The same molecule yielded an inhibition at 10 µM in assay [3] of 81%. Moreover, the minimal effective dose in assay [4] came out at 100 mg/kg.

In the case of `COc1cc(C(C)C)ccc(C2Sc3ccccc3N2CCCN(C)CCc2ccccc2)c1=O` (centres unmarked) [Compound 10B, 2-(2'-oxo-3'-methoxy-5'-isopropyl-3',5',7'-cycloheptatrienyl)-3-[3-(N-methyl-N-phenethylamino)propyl]benzothiazoline], in assay [1], the “Anti-Lipid Peroxidation (% inhibition) 10 μM” value was 93.0% and the “Anti-Lipid Peroxidation (% inhibition) 50 μM” value is reported as 94.5%. The minimal effective dose in the assay on ventricular arrhythmia (setting [5]) was below 5 mg/kg.

Regarding `COc1cc(C(C)C)ccc(CN2CCN(C(c3ccccc3)c3ccc(Cl)cc3)CC2)c1=O` (centres unmarked) [Compound 2A, 7-[4-(4-chlorobenzhydryl)piperazino-1-methyl]-4-isopropyl-2-methoxy-2,4,6-cycloheptatrien-1-one], in assay [1], the “Anti-Lipid Peroxidation (% inhibition) 10 μM” value turned out to be 28.8% and the “Anti-Lipid Peroxidation (% inhibition) 50 μM” value came to 84.7%. Also, the inhibition at 10 µM in assay [3] was 61%. The EC25 with porcine coronary artery stood at 1.8 µM. Besides, the minimal effective dose in the assay on ventricular arrhythmia (value marked # (methanesulfonate per footnote of Table 5)) was 0.3 mg/kg. Also, in assay [2] (ip, # methanesulfonate, route cell empty (method: intraperitoneally)), the minimal effective dose was 3 mg/kg.

With `COc1cc(C(C)C)ccc(C2Sc3ccccc3N2CCc2ccccc2)c1=O` (centres unmarked) [Compound 1B, 2-(2'-oxo-3'-methoxy-5'-isopropyl-3',5',7'-cycloheptatrienyl)-3-phenethylbenzothiazoline], the “Anti-Lipid Peroxidation (% inhibition) 10 μM” value in assay [1] is listed as 91.8%. The “Anti-Lipid Peroxidation (% inhibition) 50 μM” value in assay [1] is on record as 93.1%. The minimal effective dose in assay [2] (ip) is 0.1 mg/kg; with cerebral blood flow it was at least 3 mg/kg.

Consider `COc1cc(C(C)C)ccc(C2Sc3ccccc3N2CCCN(C)C)c1=O` (centres unmarked) [Compound 12B, 2-(2'-oxo-3'-methoxy-5'-isopropyl-3',5',7'-cycloheptatrienyl)-3-[3-(N,N-dimethylamino)propyl]benzothiazoline], for which the “Anti-Lipid Peroxidation (% inhibition) 10 μM” value in assay [1] was determined as 89.4%. In assay [2] (ip), this molecule came in with a minimal effective dose of 1 mg/kg.

Turning to `COc1cc(C(C)C)ccc(C2Sc3ccccc3N2Cc2ccncc2)c1=O` (centres unmarked) [Compound 6B, 2-(2'-oxo-3'-methoxy-5'-isopropyl-3',5',7'-cycloheptatrienyl)-3-(4-picolyl)benzothiazoline], in assay [1], the “Anti-Lipid Peroxidation (% inhibition) 10 μM” value worked out at 93.1% and the “Anti-Lipid Peroxidation (% inhibition) 50 μM” value amounted to 96.6%. This molecule returned a minimal effective dose in assay [2] (iv) below 1 mg/kg.

`COc1cc(C(C)C)ccc(C2Sc3ccccc3N2C)c1=O` (centres unmarked) [Compound 2B, 2-(2'-oxo-3'-methoxy-5'-isopropyl-3',5',7'-cycloheptatrienyl)-3-methylbenzothiazoline]: in assay [1], the “Anti-Lipid Peroxidation (% inhibition) 10 μM” value is reported as 95.5%. This molecule displayed a minimal effective dose in assay [2] (ip) of 1 mg/kg.

`COc1cc(C(C)C)ccc(CN2CCN(C(c3ccc(F)cc3)c3ccc(F)cc3)CC2)c1=O` [Compound 7A, 7-[4-(4,4'-difluorobenzhydryl)piperazino-1-methyl]-4-isopropyl-2-methoxy-2,4,6-cycloheptatrien-1-one]: in assay [1], the “Anti-Lipid Peroxidation (% inhibition) 10 μM” value amounted to 27.2% and the “Anti-Lipid Peroxidation (% inhibition) 50 μM” value is 59.2%. This molecule had an inhibition at 10 µM in assay [3] of 100%. Further, the EC25 in the assay on porcine coronary artery was determined as 1.9 µM. In the assay with ventricular arrhythmia (setting [5]), the minimal effective dose is below 5 mg/kg. In assay [2] (setting [6]), this molecule displayed a minimal effective dose below 10 mg/kg.

For `CC(C)c1ccc(CN2CCN(C(c3ccccc3)c3ccc(Cl)cc3)CC2)c(=O)c(O)c1` (centres unmarked) [Compound 1A, 7-[4-(4-chlorobenzhydryl)piperazino-1-methyl]-2-hydroxy4-isopropyl-2,4,6-cycloheptatrien-1-one], in assay [1], the “Anti-Lipid Peroxidation (% inhibition) 10 μM” value worked out at 6.7% and the “Anti-Lipid Peroxidation (% inhibition) 50 μM” value is below 21.3%. Moreover, the inhibition at 10 µM in assay [3] came to 44%. The EC25 with porcine coronary artery was above 10 µM. The molecule also gave a minimal effective dose in assay [2] (setting [6]) above 10 mg/kg.

Take `COCCNc1cc(C(C)C)ccc(CN2CCN(C(c3ccc(F)cc3)c3ccc(F)cc3)CC2)c1=O` [Compound 14C, 7-[4-(4,4'-difluorobenzhydryl)piperazino-1-methyl]-4-isopropyl-2-(N-2-methoxyethylamino)-2,4,6-cycloheptatrien-1-one]: in assay [1], the “Anti-Lipid Peroxidation (% inhibition) 10 μM” value amounted to 27.0% and the “Anti-Lipid Peroxidation (% inhibition) 50 μM” value worked out at 90.4%. For the same molecule, the inhibition at 10 µM in assay [3] is 71%.
